Measurements from patent US8853221B2, “Compounds of estrogen-related receptor modulators and the uses thereof” (Guangzhou Institute of Biomedicine & Health, Chinese …, priority 2008, dated 2014).

Key:
GAL-hERRα = target: T1, GAL-hERRα (Homo sapiens, UniProt P11474); experiment: GAL4-ERRα ligand binding domain luciferase reporter activation assay in 293 FT cells co-transfected with CMV-PGC-1α; assay type: cell-based; conditions: in the presence of CMV-PGC-1α, approximately 24 hours, increasing concentrations (FIG. 1)
T1 construct: expressed in transfected cells; host or cells: 293 FT cells
T1 sequence (P11474 193-421 limits assumed): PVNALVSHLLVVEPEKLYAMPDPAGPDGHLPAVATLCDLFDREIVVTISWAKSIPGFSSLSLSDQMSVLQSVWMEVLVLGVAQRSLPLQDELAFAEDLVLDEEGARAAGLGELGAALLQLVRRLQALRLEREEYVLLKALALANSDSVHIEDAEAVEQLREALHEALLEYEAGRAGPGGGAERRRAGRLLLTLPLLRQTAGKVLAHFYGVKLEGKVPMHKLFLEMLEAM
Text: To test the effect of the compounds on ERR and other nuclear hormone receptors, 293 FT cells were transiently transfected with expression vectors for the receptors along with appropriate reporter constructs according to methods known in the art. Suitable reporter gene constructs are well known to skilled workers in the fields of biochemistry and molecular biology. Other vectors known in the art can be used in the methods of the present invention. GAL4 fusions containing receptor ligand binding domain fragments were constructed by fusing human ERRα, human ERRβ and murine ERRγ ligand binding domain sequences to the C-terminal end of the yeast GAL4 DNA binding domain (amino acids 1-147 accession X85976) to form the expression vectors GAL-hERRα, GAL-L-hERRβ and Gal-mERRγ, respectively. pGAL is a control containing the yeast GAL4 DNA binding domain without receptor sequences. CMV-PGC-1α contains and expressed the PGC-1α coding sequences derived from PGC-1α (accession NM--008904). 293 FT cells for the activation assays were grown in Dulbecco's modified Eagle's medium supplemented with 10% resin charcoal-stripped fetal bovine serum at 37° C. in 5% CO2. One day prior to transfection, cells were plated to 50-80% confluence using phenol red free DMEM-FBS. The cells were transiently transfected by lipofection but other methods of transfection of DNA into cells can be utilized without deviating from the spirit of the invention. Luciferase reporter construct UASgx4-TK-Luc and cytomegalovirus-driven expression vector p-GAL, GAL-hERRα, GAL-L-hERRβ or Gal-mERRγ were added with CMV-PGC-1α. The cells were treated for approximately 24 hours with phenol red free DMEM-FBS containing 0.01% DMSO (control) or 0.01% DMSO with increasing concentrations of DK compounds. […] (FIG. 1).

high-fat-diet mice [1] = experiment: Serum free fatty acid, cholesterol and triglyceride levels in high-fat-diet mice; assay type: in vivo, C57BL/J6 mice; conditions: 5 mg/kg/day
Description: (§1) Seven weeks old male C57BL/J6 mice were either fed chow diet or a high-fat-diet with 60% calories from lard for 10 weeks. Compounds were administered to animals by gavage for two weeks at different doses. Four groups of animals (n=5) were administered with either vehicle, 5 mg/kg/day rosiglitazone, or 5 mg/kg/day DK45. Animals were fasted for 5 h, and then orally fed glucose. Blood samples were withdrawn at time 0, 15, 30, 60 and 120 min. Blood glucose level was measured by monitor (Accu-chek Advantage, Roche). The changes in blood glucose level were plotted against time and the areas under the curve were calculated for the different groups.
Moreover, DK45 at 5 mg/kg/day reduced serum free fatty acid (FIG. 7), cholesterol (FIG. 8), and triglyceride levels (FIG. 9) of non-fasting treatments.

high-fat-diet mice [2] = experiment: Non-fasting blood glucose level in high-fat-diet mice; assay type: in vivo, C57BL/J6 mice; conditions: 5 mg/kg/day by gavage for two weeks, non-fasting (FIG. 4)
[3] = test system: PDK4-promoter reporter gene driven by ERRα; experiment: PDK4-promoter luciferase reporter gene assay driven by ERRα in HeLa cells; assay type: cell-based, human; conditions: 10 uM, approximately 24 hours (FIG. 2)
Text: (§2) HeLa were transiently transfected with the pGL3-promoter (Promega) derivative pGL3-PGC1α-promoter or PDK4-Promega and expression vector for ERRα. The Renilla-Luciferase pRL-CMV Vector (Promega) was included as a control for transfection efficiency. The full length human ERRα was cloned into the expression vector pCMV. The pGL3-PGC1α-promoter or PDK4-promoter was generated by cloning an insert derived from a PCR reaction using human genomic DNA as template and primers based on the 2.6 kbp upstream sequence of the PGC1α transcriptional start site.
(§3) HeLa cells for the activation assays were grown in Dulbecco's modified Eagle's medium supplemented with 10% fetal bovine serum at 37° C. in 5% CO2. One day prior to transfection, cells were plated to 50-80% confluence using DMEM-FBS. The cells were transiently transfected by lipofection but other methods of transfection of DNA into cells can be utilized without deviating from the spirit of the invention. Luciferase reporter construct pGL3-PGC1α-promoter or PDK4-promoter and cytomegalovirus-driven expression vector pCMV or pCMV-hERRα were added. The cells were treated for approximately 24 hours with DMEM-FBS containing 0.01% DMSO (control) or 0.01% DMSO with 10 uM DK45 compound.

high-fat-diet mice [4] = experiment: Oral glucose tolerance test in high-fat-diet mice; assay type: in vivo, C57BL/J6 mice; conditions: 5 mg/kg/day by gavage for two weeks, fasted 5 h (FIG. 3)
Description: as §1

[5] = test system: PGC1α-promoter reporter gene driven by ERRα; experiment: PGC1α-promoter luciferase reporter gene assay driven by ERRα in HeLa cells; assay type: cell-based, human; conditions: 10 uM, approximately 24 hours (FIG. 2)
Text: as §2, §3

high-fat-diet mice [6] = experiment: Blood insulin level in high-fat-diet mice; assay type: in vivo, C57BL/J6 mice; conditions: 5 mg/kg/day by gavage, non-fasting (FIG. 6)
Description: as §1
(§4) The blood insulin levels of fasting and non-fasting treatments also indicate that DK45 at 5 mg/kg/day reduced the blood insulin levels of non-fasting treatments (FIG. 6).

high-fat-diet mice [7] = experiment: Insulin resistance (insulin tolerance) test in high-fat-diet mice; assay type: in vivo, C57BL/J6 mice; conditions: 5 mg/kg/day by gavage, fasted 5 h, insulin 0.75 IU/kg (FIG. 5)
Description: as §1
In addition, insullin resistance test was administered. Animals were fasted for 5 h, and then injected insulin (0.75 IU/kg). Blood samples were withdrawn at time 0, 15, 30, 60 and 120 min. Blood glucose level was measured by monitor (Accu-chek Advantage, Roche). The changes in blood glucose level were plotted against time and the areas under the curve were calculated for the different groups.
as §4

SMILES | activity of GAL-hERRα on reporter construct UASgx4-TK-Luc (GAL-hERRα) | serum free fatty acid (high-fat-diet mice [1]; non-fasting (FIG. 7)) | serum cholesterol (high-fat-diet mice [1]; non-fasting (FIG. 8)) | serum triglyceride levels (high-fat-diet mice [1]; non-fasting (FIG. 9)) | blood glucose levels, non-fasting (high-fat-diet mice [2]) | PDK4-promoter reporter gene driven by ERRα [3] | area under the curve of the oral glucose tolerance test (high-fat-diet mice [4]) | PGC1α-promoter reporter gene driven by ERRα [5] | blood insulin levels of non-fasting treatments (high-fat-diet mice [6]) | area under the curve of the insulin resistance test (high-fat-diet mice [7])
COc1ccn2c(=O)cc(-c3ccccc3)nc2c1 [DK36, 8-methoxy-2-phenyl-4H-pyrido[1,2-a]pyrimidin-4-one] | dose-dependently enhances |  |  |  |  |  |  |  |  | 
CC(C)Oc1ccn2c(=O)cc(-c3ccccc3)nc2c1 [DK41, 8-isopropoxy-2-phenyl-4H-pyrido[1,2-a]pyrimidin-4-one] | dose-dependently enhances |  |  |  |  |  |  |  |  | 
CCc1ccn2c(=O)cc(-c3ccccc3)nc2c1 [DK45, 8-ethyl-2-phenyl-4H-pyrido[1,2-a]pyrimidin-4-one] | dose-dependently enhances | reduced | reduced | reduced | reduced | enhancement | reduced | enhancement | reduced | reduced
